Values after ≈ are worked out from the molar mass of the structure shown. Active and inactive are the calls of the source. The calls are words filed in the database; no cut-off is given here.
Tests used:
[1] = Solubility of the compound in water at 20 degC by UV spectrophotometry; format: physicochemical
Chikungunya virus = assay: Antiviral activity against Chikungunya virus assessed as suppression of viral replication; format: functional
Hepatitis C virus = assay: Antiviral activity against Hepatitis C virus assessed as suppression of viral replication; format: functional, organism-based; conditions: Hepacivirus hominis
Coxsackievirus B3 [2] = assay: Antiviral activity against Coxsackievirus B3 infected in african green monkey Vero cells assessed as inhibition virus-induced cell death by MTS assay; format: functional, organism-based; conditions: Enterovirus B
[3] = Cytotoxicity against african green monkey Vero cells assessed as inhibition of host metabolism by MTS assay; format: cell-based; conditions: chlorocebus sabaeus
[4] = Selectivity index, ratio of CC50 for african green monkey Vero cells to EC50 for Coxsackievirus B3; format: toxicity, cell-based; conditions: read-out: Ratio CC50/EC50
Coxsackievirus B3 [5] = assay: Antiviral activity against Coxsackievirus B3 infected in african green monkey vero cells assessed as inhibition of virus-induced cytopathic effect by microscopic estimation; format: functional, organism-based
Vero = assay: Cytotoxicity against african green monkey Vero cells assessed as change in morphology of the cells by microscopic analysis; format: cell-based; conditions: chlorocebus sabaeus

Clc1ncnc2c1ncn2C1CC2CCC1C2 (stereo not drawn)
solubility [1]: 530 µg/mL (≈ 2130 µM)

O=C(OC1CC2CC1CC2n1cnc2c(Cl)ncnc21)c1ccccc1 (stereo not drawn)
Activity (Chikungunya virus): inactive | Activity (Hepatitis C virus): inactive | EC50 (Coxsackievirus B3 [2]): > 150 µM | EC90 (Coxsackievirus B3 [2]): > 150 µM | CC50 [3]: > 542 µM

O=C(OC1CC2CC1C(n1cnc3c(Cl)ncnc31)C2)c1ccccc1 (stereo not drawn)
Activity (Chikungunya virus): inactive | selectivity ratio [4]: 1.3 | Activity (Hepatitis C virus): inactive | EC50 (Coxsackievirus B3 [2]): 35 µM | EC90 (Coxsackievirus B3 [2]): > 45 µM | CC50 [3]: 45 µM

C[C@@]1(O)[C@H](O)[C@@H](CO)O[C@H]1n1ccc(N)nc1=O
EC50 (Coxsackievirus B3 [2]): 94 µM | EC90 (Coxsackievirus B3 [2]): 179 µM

CCCCCC(=O)O[C@H]1C[C@H]2C[C@@H]1[C@H](n1cnc3c(Cl)ncnc31)C2 (relative stereo)
Activity (Chikungunya virus): inactive | selectivity ratio [4]: < 1 | Activity (Hepatitis C virus): inactive | EC50 (Coxsackievirus B3 [2]): > 70 µM | EC90 (Coxsackievirus B3 [2]): > 70 µM | CC50 [3]: 70 µM

CCCCCCCC(=O)O[C@H]1C[C@H]2C[C@@H]1[C@H](n1cnc3c(Cl)ncnc31)C2 (relative stereo)
Activity (Chikungunya virus): inactive | selectivity ratio [4]: < 1 | Activity (Hepatitis C virus): inactive | EC50 (Coxsackievirus B3 [2]): > 50 µM | EC90 (Coxsackievirus B3 [2]): > 50 µM | CC50 [3]: 50 µM

CCCCCCCCCC(=O)O[C@H]1C[C@H]2C[C@@H]1[C@H](n1cnc3c(Cl)ncnc31)C2 (relative stereo)
Activity (Chikungunya virus): inactive | selectivity ratio [4]: < 1 | Activity (Hepatitis C virus): inactive | EC50 (Coxsackievirus B3 [2]): > 44 µM | EC90 (Coxsackievirus B3 [2]): > 44 µM | CC50 [3]: 44 µM

CCCCCC(=O)O[C@H]1C[C@H]2C[C@@H]1C[C@@H]2n1cnc2c(Cl)ncnc21 (relative stereo)
Activity (Chikungunya virus): inactive | selectivity ratio [4]: 1.8 | Activity (Hepatitis C virus): inactive | Activity (Coxsackievirus B3 [5]): Active | EC50 (Coxsackievirus B3 [2]): 34 µM | EC90 (Coxsackievirus B3 [2]): 56 µM | CC50 [3]: 60 µM | Activity (Vero): Non-toxic

CCCCCCCC(=O)O[C@H]1C[C@H]2C[C@@H]1C[C@@H]2n1cnc2c(Cl)ncnc21 (relative stereo)
Activity (Chikungunya virus): inactive | selectivity ratio [4]: < 1 | Activity (Hepatitis C virus): inactive | EC50 (Coxsackievirus B3 [2]): > 52 µM | EC90 (Coxsackievirus B3 [2]): > 52 µM | CC50 [3]: 52 µM

CCCCCCCCCC(=O)O[C@H]1C[C@H]2C[C@@H]1C[C@@H]2n1cnc2c(Cl)ncnc21 (relative stereo)
Activity (Chikungunya virus): inactive | selectivity ratio [4]: 1.5 | Activity (Hepatitis C virus): inactive | Activity (Coxsackievirus B3 [5]): Active | EC50 (Coxsackievirus B3 [2]): 32 µM | EC90 (Coxsackievirus B3 [2]): > 47 µM | CC50 [3]: 47 µM | Activity (Vero): Non-toxic

CO[C@H]1C[C@H]2C[C@@H]1C[C@@H]2n1cnc2c(Cl)ncnc21 (relative stereo)
Activity (Chikungunya virus): inactive | selectivity ratio [4]: > 27 | Activity (Hepatitis C virus): inactive | Activity (Coxsackievirus B3 [5]): Active | EC50 (Coxsackievirus B3 [2]): 27 µM | EC90 (Coxsackievirus B3 [2]): 37 µM | CC50 [3]: > 718 µM | Activity (Vero): Non-toxic

CCCCCO[C@H]1C[C@H]2C[C@@H]1C[C@@H]2n1cnc2c(Cl)ncnc21 (relative stereo)
Activity (Chikungunya virus): inactive | selectivity ratio [4]: 1.5 | Activity (Hepatitis C virus): inactive | EC50 (Coxsackievirus B3 [2]): 21 µM | EC90 (Coxsackievirus B3 [2]): > 32 µM | CC50 [3]: 32 µM

— ChEMBL document CHEMBL2010699, “Novel substituted 9-norbornylpurines and their activities against RNA viruses” (Bioorg Med Chem Lett, 2012)
